# Measured values as given in PMC4204617 (Frontiers in Cellular Neuroscience, 2014).
# Entries after “also recorded” stand apart in the source; their conditions may differ. Where no end group is shown, it is not given here.
# Experiments:
# [1] = system: Cx43 hemichannels in astrocytes; conditions: hippocampal slices; ref Rouach et al., 2008, Supplementary Data Figure S5; cited from earlier work
# Protocol: The inhibitory effect of Gap19 in situ was then tested by performing the Etd^+ uptake assay in acute hippocampal brain slices from GFAP-eGFP transgenic mice. […] This increase ... || Gap19 is a peptide that corresponds to a sequence on the cytoplasmic loop (CL) of Cx43. Its sequence is part of the L2 domain that is involved in interactions of the CL with the CT-tail of Cx43. […] This differential effect is most probably the consequence of distinct channel configurations of hemichannels as compared ...
# hemichannels = conditions: cited from earlier work; for Hemichannel-only effect: ref not given
# Text: Gap junction channels form junctional plaques that are composed of two docked hemichannels oligomerized from six Cx protein subunits. […] Stehberg and collaborators have used TAT-L2 for local injection in the amygdala in in vivo animal studies on fear memory (Stehberg et al., [2012]).
# Gap19 = Gap19 (UniProt P17302); conditions: cited from earlier work
# Cx43 hemichannels [2] = molecular target: T1, Cx43 hemichannels (Mus musculus, UniProt P23242); test: Glutamate-triggered ATP release in cultured cortical astrocytes; format: cell-based, mouse (OF1); design: endogenous in cells; host or cells: primary cortical astrocytes from newborn OF1 mice; conditions: primary cortical astrocyte cultures; glutamate 100 μM, 15 min; Gap19 30 min pre-incubation; n = 6 independent experiments; read-out: IC50 / half-maximal effect concentration for glutamate-triggered ATP release
# Protocol: (§1) Primary astrocyte cultures were prepared from the cortex of newborn (1–2 days) OF1 mice as described previously (Meme et al., [2006]). Briefly, cells were seeded into 100-mm diameter plastic dishes (Nunc, Roskilde, Denmark) at the density of 3 × 10^6 cells/dish in DMEM (Sigma-Aldrich, St-Louis MO, USA), supplemented with penicillin (5 U/ml), streptomycin (5 μg/ml) (Invitrogen, Carlsbad, CA, USA) and 10% FCS (Hyclone, Logan, UT, USA). The medium was changed twice a week. When cells reached confluence, around 10 days in vitro (DIV), they were harvested with trypsin-EDTA (Invitrogen). […]
# (§2) The data are expressed as mean ± s.e.m., with “n” denoting the number of independent experiments. […] In experiments where the effects of different treatments were assessed on normalized data, non-parametric ANOVA Kruskal-Wallis tests were performed. […] Unless stated otherwise, significance as compared to control condition based on the raw data (before normalization) was assessed by two-tailed Wilcoxon signed-ranked tests. […]
# While in vivo astrocytes express two major Cxs, Cx43 and Cx30, astrocytes in primary culture offer the advantage that only one of them is expressed, namely Cx43 (Giaume et al., [1991a]). Indeed, Cx30 is detected in astrocytes only either after 10–11 weeks of solo-culture (Kunzelmann et al., [1999]) or in 3 week-old astrocytes after 1 week of co-culture with neurons (Koulakoff et al., [2008]). […]
# Cx43 hemichannels [3] = molecular target: T1, Cx43 hemichannels; test: Etd+ uptake in astrocytes of acute hippocampal slices, Ca2+-free solution; format: cell-based, mouse (GFAP-eGFP); design: performing the Etd^+ uptake assay in acute hippocampal brain slices from GFAP-eGFP transgenic mice; from tissue; host or cells: acute hippocampal slices of GFAP-eGFP mice (GFP-positive astrocytes); conditions: zero extracellular Ca2+, "in the 250 μM range", read-out: Half-maximal effect concentration, zero extracellular Ca2+ in brain slices
# Protocol: GFAP-eGFP mice (Nolte et al., [2001]) were decapitated and their brains were rapidly removed. Hippocampi were dissected and placed in ice-cold artificial cerebrospinal fluid (ACSF) equilibrated with 95% O2–5% CO2. Transverse hippocampal slices (300–400 μm thick) were cut on a vibroslicer (Leica VT 1000S, Wetzlar, Germany) and transferred to a holding chamber where they rested on a nylon mesh, submerged in oxygenated ACSF at room temperature for a stabilization period of 45 min before recodings. The ACSF solution contained in mM: NaCl 134; KCl 2.8; NaHCO3 29; NaH2PO4 1.1; glucose 12; MgSO4 1.5; CaCl2 2.5.
# In slices derived from GFAP-eGFP mice, astrocytes were identified by GFP fluorescence and hemichannel activity was investigated. […] In order to be sure that we were quantifying Etd^+ uptake in astrocytes, in this study hemichannel activity was only considered in GFP-positive cells. […] Fluorescence was quantified in arbitrary units (AU), Image J program (NIH software). Dye uptake intensity was evaluated as the difference (F—F0) between the fluorescence (F) from astrocytes (20—30 cells per slice) and the background fluorescence (F0) measured in the same field where no labeled cells were detected. […]
# The data are expressed as mean ± s.e.m., with “n” denoting the number of independent experiments. […]
# Cx43 hemichannels [4] = molecular target: T1, Cx43 hemichannels; test: Etd+ uptake in cultured astrocytes treated with TNF-α/IL-1β; format: cell-based, mouse (OF1); design: endogenous in cells; host or cells: primary cortical astrocytes from newborn OF1 mice; conditions: astrocyte cultures, "in the 250 μM range", read-out: Half-maximal effect concentration, hemichannels opened with TNF-α/IL-1β
# Protocol: as §1
# Hemichannel activity in cultured astrocytes was induced either by treatment with two pro-inflammatory cytokines, TNF-α and IL-1β (Retamal et al., [2007]) or by exposing the cells to a Ca^2+-free solution (Stout et al., [2002]). […] Captured images of Etd^+ uptake were analyzed with the Image J program (NIH software).
# as §2
# [5] = Brain TAT immunostaining 1 h after intra-carotid injection; format: in vivo, mouse (C57Bl6)
# Protocol: Two different approaches were used for in vivo delivery of TAT-Gap19. For acute experiments, 4 months old C57Bl6 male mice were subjected to intra-carotid injection of 45 mg/kg TAT-Gap19 (GenScript, Pistcataway, NJ, US) dissolved in saline. After 1 h the mice were deeply anesthetized with sodium pentobarbital (120 mg/kg intraperitoneally) and were transcardially perfused with cold ice phosphate-buffered saline (PBS) followed by perfusion with 10% formalin (Sigma-Aldrich, Oakville, Canada). Brains were removed and stored in 10% formalin and the next day were cryoprotected in 30% sucrose in PBS solution. Cortical brain sections, 10 μm thick, were collected and mounted sequentially on glass microscope slides. Immunohistochemistry was performed on the sections as previously described (Ozog et al., [2002]; Nakase et al., [2004]; Kozoriz et al., [2010]). Ten μm thick glass mounted sections were rehydrated in PBS and then blocked in PBS pH 7.4 containing 0.3% Triton-X-100 (TX100, Fisher Scientific) and 2% bovine serum albumin (BSA; Invitrogen, Canada) for 1 h, and incubated overnight in PBS containing 1.0% BSA, 0.3% TX100 and anti-TAT primary antibody (1/100 dilution; Cat # CB0888, Cell Applications, Inc., USA). The following day, the slices were washed with PBS (3 × 10 min) and subsequently incubated for 1 h with secondary antibody (anti-mouse IgG tagged with Alexa 488; Molecular Probes, USA) in PBS containing 1% BSA, 0.3% TX100. Slices were then rinsed 3 times for 10 min with PBS and mounted with ProLong Gold antifade reagent with DAPI. Images were obtained using the same exposure times on a Ziess Axiophot Epifluorescent microscope, Zeiss Canada, Toronto).
# T1 sequence (P23242 whole entry): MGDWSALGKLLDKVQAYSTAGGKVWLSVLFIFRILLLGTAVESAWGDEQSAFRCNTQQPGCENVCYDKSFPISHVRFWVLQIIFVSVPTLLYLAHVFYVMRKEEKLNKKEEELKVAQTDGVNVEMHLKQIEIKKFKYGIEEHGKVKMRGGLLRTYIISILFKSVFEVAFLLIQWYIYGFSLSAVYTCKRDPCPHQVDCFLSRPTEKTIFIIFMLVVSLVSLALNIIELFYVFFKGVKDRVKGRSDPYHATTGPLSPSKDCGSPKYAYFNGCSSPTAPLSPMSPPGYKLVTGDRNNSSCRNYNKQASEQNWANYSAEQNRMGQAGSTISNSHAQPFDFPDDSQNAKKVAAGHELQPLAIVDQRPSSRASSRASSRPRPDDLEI
# Chain of Connexin43 C-terminal tail (P17302 232-382): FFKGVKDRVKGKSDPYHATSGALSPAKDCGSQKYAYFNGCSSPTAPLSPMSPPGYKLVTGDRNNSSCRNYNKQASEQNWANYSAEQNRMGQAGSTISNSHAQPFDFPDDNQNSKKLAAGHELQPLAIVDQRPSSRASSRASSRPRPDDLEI
# Chain of Gap19 (P17302 whole entry, looked up): as the sequence (P23242 whole entry) above, with E124D, V164I, R243K, T251S, P253A, S257A, P263Q, S341N, A344S, V347L counted along it
molecule,measurement,setting,value
CC1(C)[C@@H](OC(=O)CCC(=O)O)CC[C@]2(C)[C@H]3C(=O)C=C4[C@@H]5C[C@@](C)(C(=O)O)CC[C@]5(C)CC[C@@]4(C)[C@]3(C)CC[C@@H]12 [carbenoxolone],Block of hemichannel activity induced by calcium-free solution,[1],can be inhibited by carbenoxolone in hippocampal slices; also recorded: blocks hemichannel activity induced by a calcium free solution
same,Discrimination between gap junctions and hemichannels,"hemichannels; ref not printed at this statement (nearby: Takeuchi et al., 2011)",poorly discriminate between gap junctions and hemichannels
"[Gd+3] [gadolinium (Gd^3+), gadolinium]",Hemichannel-only effect,hemichannels,supposed to affect only hemichannels
"[La+3] [lanthanum (La^3+), lanthanum]",Hemichannel-only effect,hemichannels,supposed to affect only hemichannels
Connexin43 C-terminal tail (from UniProt P17302),Kd,Gap19,2.5 µM
"KQIEIKKFK [Gap19, KQIEIKKFK]",IC50,Cx43 hemichannels [2],142 µM
same,IC50,Cx43 hemichannels [3],~250 µM
same,IC50,Cx43 hemichannels [4],~250 µM
"YGRKKRRQRRRKQIEIKKFK [TAT-Gap19, YGRKKRRQRRR-KQIEIKKFK]","TAT immunoreactivity in brain, 1 h after carotid injection","[5]; 45 mg/kg intra-carotid, 4 months old male mice, 1 h, anti-TAT antibody, compared with vehicle (PBS)",readily detected throughout the brain; also recorded: clear TAT immunoreactivity
same,TAT peptide in GFAP-positive astrocytes (double labeling anti-TAT/anti-GFAP),"[5]; 45 mg/kg intra-carotid, 1 h, cortex","some GFAP-positive astrocytes (white arrows) have taken up the TAT peptide; also recorded: reaches GFAP-positive astrocytes, however, several TAT-positive cells are apparently not GFAP-positive"
same,Blood-brain barrier crossing,"[5]; in vivo injection, immunostaining for TAT moiety, intra-carotid and i.v. experiments taken together",traverses the blood-brain barrier and is retained in the cells; also recorded: can successfully cross the blood-brain barrier
